± gives the standard deviation.
How the values were obtained:
[1] = chemical recovery into PDMS from spiked human plasma; higher = better extraction; settings: pooled human plasma, extraction method: PES with PDMS
[2] = chemical recovery by SPE of plasma after PDMS sampling; higher = better extraction; settings: pooled human plasma, extraction method: HLB SPE of plasma after PES
[3] = chemical recovery from spiked human plasma; higher = better extraction; settings: pooled human plasma
[4] = extraction method: PES+SPE (3 d PDMS equilibration then HLB SPE)
[5] = extraction method: SPE only (HLB 96-well)
[6] = extraction method: SPE only (HLB 96-well), PES comparison experiment
[7] = extraction method: solvent precipitation (ACN + hexane)
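Wherever chemical recovery by SPE of plasma after PDMS sampling is given: over 400 spiked chemicals quantified by LC-HRMS or GC-HRMS via internal standard calibration, recovery relative to spike mix added to unspiked plasma extract to correct matrix effects.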

Row | Compound | chemical recovery into PDMS ([1]; equilibration time (d): 1) | chemical recovery into PDMS ([1]; equilibration time (d): 3) | chemical recovery into PDMS ([1]; equilibration time (d): 6) | chemical recovery by SPE of plasma ([2]; equilibration time (d): 1) | chemical recovery by SPE of plasma ([2]; equilibration time (d): 3) | chemical recovery by SPE of plasma ([2]; equilibration time (d): 6) | chemical recovery [3, 4] | chemical recovery [3, 5] | chemical recovery [3, 6] | chemical recovery [3, 7]
1 | Clc1cccc(Cl)c1NC1=NCCN1 [Clonidine] | 7.21 ± 0.54% | 8.62 ± 0.81% | 6.38 ± 5.7% | 13.4 ± 3.1% | 12.7 ± 1.8% | 12.3 ± 3.9% | 28.5 ± 5.5% | 41.2 ± 3.6% | 39.6 ± 6.6% | 60.3 ± 8.8%
2 | CN[C@H]1CC[C@@H](c2ccc(Cl)c(Cl)c2)c2ccccc21 [Sertraline] | 0.493 ± 0.065% | 0.434 ± 0.081% | 0.535 ± 0.27% | 0.296 ± 0.11% | 0.321 ± 0.11% | 0.0944 ± 0.088% | 1.09 ± 0.4% | 71.9 ± 9.3% | 40.5 ± 8.4% | 72.8 ± 3.8%
3 | CCCCCCCCCCCCCC[N+](C)(C)[O-] [N,N-Dimethyltetradecylamine-N-oxide] | 0.599 ± 0.55% | 1.2 ± 0.35% | 1.01 ± 0.26% | 15.7 ± 3.1% | 12.5 ± 4.9% | 8.54 ± 5.7% |  | 71.5 ± 26% | 42.7 ± 8.4% | 
4 | CN(C)CCC=C1c2ccccc2CCc2ccccc21 [Amitriptyline] | 0.00525 ± 0.0045% | 0.0228 ± 0.034% |  | 0.152 ± 0.26% | 0.14 ± 0.12% | 0.0767 ± 0.067% | 0.236 ± 0.082% | 39.4 ± 10% | 44.1 ± 5.6% | 77.5 ± 5.1%
5 | Cc1ccc(S(N)(=O)=O)cc1 [p-Toluenesulfonamide] | 2.17 ± 0.29% | 1.8 ± 0.5% | 2.08 ± 0.47% | 51.8 ± 5.5% | 55.4 ± 4.7% | 52.8 ± 0.84% |  |  |  | 77.9 ± 3.1%
6 | c1ccc(Nc2cccc3ccccc23)cc1 [N-Phenyl-1-naphthylamine] | 4.16 ± 1.3% | 6.12 ± 3.5% | 6.6 ± 1.1% | 2.23 ± 1.6% | 2.7 ± 0.69% | 1.86 ± 0.51% |  | 45.8 ± 14% | 18.7 ± 4.1% | 83.2 ± 5.3%
7 | C[C@@H]1C[C@H]2[C@@H]3CCC4=CC(=O)C=C[C@]4(C)[C@@]3(Cl)[C@@H](O)C[C@]2(C)[C@@]1(OC(=O)c1ccco1)C(=O)CCl [Mometasone fuorate] | 22.4 ± 3% | 29.4 ± 3.4% | 32.6 ± 2.6% |  |  |  |  |  | 32.8 ± 7.8% | 
8 | CC(COc1ccc(Oc2ccccc2)cc1)Oc1ccccn1 (centres undefined) [Pyriproxyfen] | 48.2 ± 4.8% | 50.9 ± 6.1% | 49.3 ± 2.8% |  |  |  |  | 39.7 ± 12% | 23 ± 4.6% | 
9 | CO/N=C(/C(=O)OC)c1ccccc1CO/N=C(\C)c1cccc(C(F)(F)F)c1 [Trifloxystrobin] | 47.2 ± 4.1% | 47.8 ± 5.8% | 47.3 ± 3.1% |  |  |  |  | 48 ± 6.8% | 45.4 ± 8.7% | 
10 | O=P1(N(CCCl)CCCl)NCCCO1 (centres undefined) [Cyclophosphamide] | 1.55 ± 2.7% | 2.5 ± 4.3% | 6.21 ± 5.4% |  |  |  | 49.6 ± 4.1% | 41 ± 4% | 55 ± 4.7% | 70.9 ± 3.3%
11 | ClC=C(c1ccc(Cl)cc1)c1ccc(Cl)cc1 [4,4-DDMU] |  | 67.8 ± 4.7% | 62.3 ± 4.6% | 11.4 ± 8% | 12 ± 2.1% | 11.5 ± 4.2% |  |  |  | 
12 | COC(=O)N(OC)c1ccccc1COc1ccn(-c2ccc(Cl)cc2)n1 [Pyraclostrobin] | 46.4 ± 5.7% | 47.9 ± 3.8% | 46.6 ± 3.3% |  |  |  | 71.5 ± 8.6% | 48 ± 6.1% | 36.9 ± 5% | 
13 | O=P(Oc1ccccc1)(Oc1ccccc1)Oc1ccccc1 [Triphenylphosphate] | 41.3 ± 4.4% | 43.5 ± 3.7% | 42 ± 2.9% |  |  |  |  | 57.9 ± 4.8% | 41.3 ± 5.6% | 88.1 ± 6.6%
14 | Cl[C@H]1[C@H](Cl)[C@@H](Cl)[C@H](Cl)[C@H](Cl)[C@H]1Cl [alpha-HCH] | 56.7 ± 14% | 69.9 ± 18% | 66.1 ± 14% |  |  |  |  |  | 25.5 ± 5.6% | 
15 | COc1cc(Cl)ccc1Oc1ccc(Cl)cc1Cl [Triclosan-methyl] |  |  | 84.6 ± 26% |  |  |  |  | 0.483 ± 0.13% | 12.2 ± 2.8% | 22.2 ± 1.1%
16 | CCC(=O)OCC(=O)[C@@]1(OC(=O)CC)[C@@H](C)C[C@H]2[C@@H]3CCC4=CC(=O)C=C[C@]4(C)[C@@]3(F)[C@@H](O)C[C@@]21C [Betamethasone dipropionate] | 42.4 ± 3% | 44 ± 1.3% | 45.4 ± 3.2% |  |  |  |  |  | 39.3 ± 5.3% | 
17 | CC1(C)[C@H](C=C(Cl)Cl)[C@H]1C(=O)OCc1c(F)c(F)cc(F)c1F [Transfluthrin] | 79.7 ± 14% | 113 ± 37% | 92.7 ± 12% |  |  |  |  | 0.85 ± 0.086% | 13.8 ± 3.7% | 31.9 ± 2.4%
18 | Nc1ccccc1Br [2-Bromoaniline] | 6.56 ± 0.99% | 9.84 ± 3% | 5.91 ± 1.3% | 0.45 ± 0.78% | 1.14 ± 0.62% | 0.431 ± 0.75% |  |  |  | 
19 | CCCCC(CC)COC(=O)C(C#N)=C(c1ccccc1)c1ccccc1 (centres undefined) [Octocrylene] | 62.5 ± 6.4% | 65.5 ± 8% | 65.4 ± 1.9% |  |  |  | 73.7 ± 6% | 2.21 ± 0.76% |  | 59.8 ± 6.2%
20 | O=c1[nH]cc(F)c(=O)[nH]1 [5-Fluorouracil] |  | 0.00395 ± 0.0068% |  |  |  |  | 0.502 ± 0.11% | 0.392 ± 0.68% |  | 
21 | CC1=CC(=O)CC(C)(C)C1 [Isophorone] | 4.8 ± 8.3% |  |  |  |  |  |  | 0.623 ± 0.28% |  | 
22 | CCCCOP(=O)(O)OCCCC [Di-n-butyl phosphate] | 25.9 ± 1.5% | 31.1 ± 3.2% | 30.9 ± 1.4% |  |  |  | 42.2 ± 5% | 33.5 ± 3.3% |  | 67.8 ± 3.6%
23 | c1ccc2cc3c(cc2c1)-c1cccc2cccc-3c12 [Benzo(k)fluoranthene] |  | 92.5 ± 5.6% | 93.8 ± 18% |  |  |  |  | 1.23 ± 0.43% |  | 50.7 ± 1.6%
24 | CC(C)c1ccc2sc3ccccc3c(=O)c2c1 [2-Isopropylthioxanthone] | 45.3 ± 4.8% | 48.5 ± 4.6% | 46.7 ± 2.5% |  |  |  |  | 33.5 ± 9.6% | 19.8 ± 4.6% | 
25 | CCOP(=S)(OCC)SCSP(=S)(OCC)OCC [Ethion] | 48.1 ± 8.9% | 47.4 ± 4.3% | 46.7 ± 1.1% |  |  |  |  | 37.2 ± 9.9% | 31.7 ± 5.8% | 
26 | O=S(=O)(c1ccc(Cl)cc1)c1ccc(Cl)cc1 [Bis(4-chlorophenyl)sulfone] | 41.4 ± 2.9% |  | 39.6 ± 14% |  |  |  |  | 4.65 ± 1.5% |  | 
